The source of these data is paper PMC2949846 (Virology Journal, 2010).

The nature of the series: physchem. To be noted: water.

No end group written: not given here.

In general, solubility refers to the concentration that dissolves in the medium under given conditions. Low readings indicate a poorly soluble substance, high ones a readily soluble substance. The sequence FHNSNSRILFNQENNNFMYS [B] returned a solubility of 2000 µg/mL. For the sequence EAKSSIAKHFSLWKSYADADIKNSENK [A], the solubility was 2000 µg/mL.
